# Patent publication US8999964B2, “TGR5 modulators and methods of use thereof” (Intercept Pharmaceuticals, Inc., priority 2008, dated 2015)
# pEC50: −log10 of the molar value. Counter-ions that a name gives are not always drawn.
# Key:
# LXRα = biological target: T1, LXRα (Homo sapiens, UniProt Q13133); assay: LXR coactivator recruitment (Alphascreen); type: biochemical; conditions: Table 6
# T1 sequence (Q13133 1-447): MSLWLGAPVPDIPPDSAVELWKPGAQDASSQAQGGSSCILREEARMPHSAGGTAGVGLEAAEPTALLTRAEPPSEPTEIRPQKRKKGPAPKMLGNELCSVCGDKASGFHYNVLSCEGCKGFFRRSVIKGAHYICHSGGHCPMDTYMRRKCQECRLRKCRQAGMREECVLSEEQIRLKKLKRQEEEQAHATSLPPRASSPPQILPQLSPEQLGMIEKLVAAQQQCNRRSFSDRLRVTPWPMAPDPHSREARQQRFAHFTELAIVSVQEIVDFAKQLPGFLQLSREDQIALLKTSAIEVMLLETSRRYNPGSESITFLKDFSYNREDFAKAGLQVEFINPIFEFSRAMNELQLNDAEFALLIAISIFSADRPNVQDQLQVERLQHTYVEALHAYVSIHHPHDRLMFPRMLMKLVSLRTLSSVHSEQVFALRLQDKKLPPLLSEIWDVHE
# intestinal bacteria = assay: In vitro metabolic stability in human stools culture; type: in vitro ADME
# Description: Homogenized fresh human stools (500 mg) were transferred into sterile vials to which 5 mL of sterilized chopped meat-glucose medium (Scott Lab., Fiskville, R.I.) was added. BAs were then added at a final concentration of 0.05 mM. Vials were incubated at 37° C.; then, at 0, 1, 2, 4, 8 and 24 h after the addition of the BA, the reaction was stopped with 150 μL of 30% KOH. The samples were centrifuged at 3500 rpm for 10 min; from the supernatant the BA were isolated by C-18 solid-phase extraction and analyzed by TLC and HPLC-ES-MS/MS.
# Thin-layer chromatography (TLC), utilizing silica gel 0.25 mm thickness plates (Merck, Darmstat, Germany), was employed as the first screening test. The solvent system used for the separation of conjugated BA was composed of propionic acid/isoamyl acetate/water/N-propanol (3:4:1:2, v/v/v/v; solvent I), and that of the unconjugated BA was acetic acid/carbon tetrachloride/isopropyl ether/isoamyl acetate/water/N-propanol/benzene (1:4:6:8:2:2, v/v/v/v/v/v; solvent II).
# in vitro = conditions: human
# [1] = Bile fistula rat, femoral (iv) infusion: bile flow, biliary secretion, metabolism; conditions: for Conc. in bile: rat bile; for Secretion (biliary): rat
# [2] = Bile fistula rat, duodenal (id) infusion: bile flow, biliary secretion, metabolism; conditions: for Intestinal absorption: biliary secretion id versus iv; for Conc. in bile: rat bile; for Secretion (biliary): rat
# hTGR5 = biological target: T2, hTGR5 (Homo sapiens, UniProt Q8TDU6); assay: FRET assay (intracellular cAMP) in NCI-H716 cells; type: cell-based; design: Human intestinal cell lines (NCI-H716) were plated in 96-well plates; endogenous in cells; host or cells: NCI-H716
# T2 sequence (Q8TDU6 1-330): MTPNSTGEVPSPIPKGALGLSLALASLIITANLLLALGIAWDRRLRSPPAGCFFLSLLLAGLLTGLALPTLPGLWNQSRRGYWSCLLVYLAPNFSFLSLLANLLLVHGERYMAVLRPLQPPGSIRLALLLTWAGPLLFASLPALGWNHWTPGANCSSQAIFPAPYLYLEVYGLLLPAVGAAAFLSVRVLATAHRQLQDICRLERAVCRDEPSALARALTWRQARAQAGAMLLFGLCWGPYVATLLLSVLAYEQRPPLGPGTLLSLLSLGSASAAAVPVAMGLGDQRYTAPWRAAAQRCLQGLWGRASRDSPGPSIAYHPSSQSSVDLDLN
# Description: The receptor binding assay was performed by measuring the level of cyclic AMP (cAMP) using FRET assay. Human intestinal cell lines (NCI-H716) were plated in 96-well plates coated with 0.75 mg/ml Matrigel (BD Biosciences) according to manufacturer's instructions just prior to use, at a density of 12×10^3 cells/well in DMEM supplemented with 10% (v/v) FBS, 100 units/ml penicillin and 100 μg/ml streptomycin sulfate, and cultured for 24 h, which allowed cell adhesion to the bottom of the plate. The cells were washed twice with PBS and medium was exchanged for cAMP assay medium [OPTIMEM containing 0.1% (w/v) BSA and 1 mM 3-isobutyl-1-methylxanthine (IBMX)]. […] The level of intracellular cAMP was determined with Lance kit (PerkinElmer). Litocholic acid was used as control ligand. Z′ factor was used to validate assays. Non linear regression curves, without constraints, were performed by using four parameter equation and GraphPad Prism Software (GraphPad Inc.), to obtain the EC50 values.
# After subtracting the average value of the basal (vehicle-treated) condition, values were applied to EC50 and/or efficacy determinations. Calculation of average EC50 and comparison of the EC50 between different compounds were done after transformation to logarithms.
# bovine serum albumin = bovine serum albumin (Bos taurus, UniProt P02769); assay: Albumin binding by equilibrium dialysis; type: in vitro ADME; design: 5% bovine serum albumin-saline solution (pH 7.2); from tissue; host or cells: bovine serum (by the name of the product); conditions: 100 μM BA in 5% bovine serum albumin-saline, pH 7.2
# Description: The extent of albumin binding was evaluated by equilibrium dialysis at a fixed BA-albumin ratio. Each BA was dissolved at a concentration of 100 μM in 5% bovine serum albumin-saline solution (pH 7.2) and left to stand for 24 h at 25° C. Two milliliters of this solution was dialyzed in cellulose sacs having a molecular weight cut-off of 12,000-14,000 Dalton against 25 ml of saline solution. The system was equilibrated by gently shaking for 72 h at 25° C. BA concentrations of the dialyzed solution (corresponding to the free unbound fraction) and of the starting solution were determined with HPLC-ESI-MS/MS in the same conditions of the previous analysis.
# The percentage of albumin binding was calculated from the initial BA concentration and from the unbound concentration in the dialyzed fraction.
# [3] = bile fistula rat, mass spectrometry
# [4] = femoral infusion 1 μmol/kg/min 1 h, 75 min
# [5] = duodenal infusion 1 μmol/kg/min 1 h, 90 min
# Chain of bovine serum albumin (P02769 25-607): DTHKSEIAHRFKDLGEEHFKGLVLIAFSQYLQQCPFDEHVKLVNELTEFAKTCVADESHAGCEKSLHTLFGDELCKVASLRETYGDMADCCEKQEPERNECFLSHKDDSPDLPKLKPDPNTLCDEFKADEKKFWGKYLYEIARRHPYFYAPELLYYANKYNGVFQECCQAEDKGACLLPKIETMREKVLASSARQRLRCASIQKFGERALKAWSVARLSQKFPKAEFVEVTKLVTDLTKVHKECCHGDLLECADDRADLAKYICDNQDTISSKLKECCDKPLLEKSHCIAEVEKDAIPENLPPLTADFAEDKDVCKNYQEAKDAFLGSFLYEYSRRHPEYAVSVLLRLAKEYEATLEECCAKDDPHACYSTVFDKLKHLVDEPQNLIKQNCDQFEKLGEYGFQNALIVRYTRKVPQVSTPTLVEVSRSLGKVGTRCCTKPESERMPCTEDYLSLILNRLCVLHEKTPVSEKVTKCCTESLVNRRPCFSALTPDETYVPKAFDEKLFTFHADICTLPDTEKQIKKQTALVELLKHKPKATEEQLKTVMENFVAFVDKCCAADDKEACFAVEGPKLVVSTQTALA
smiles,measurement,setting,value
"CC[C@H]1[C@@H](O)[C@@H]2[C@H](CC[C@]3(C)[C@@H]([C@H](C)CCC(=O)O)[C@@H](O)C[C@@H]23)[C@@]2(C)CC[C@@H](O)C[C@@H]12 [Compound 10, 3α,7α,16β-trihydroxy-6α-ethyl-5β-cholan-24-oic acid sodium salt]",LXRα Activation EC50,LXRα,No activity
same,Compound recovered unmodified in human stool cultures,"intestinal bacteria; after 24 hour incubation, 0.05 mM, 37° C.",more than 85%
same,Side chain stability to intestinal bacteria,intestinal bacteria; human stool cultures,very stable for side chain metabolism
same,EC50 at 4 h,in vitro,> 1000 µM
same,"Hepatic metabolism, species in bile after iv administration",[1]; [3],secreted in bile as such and mainly conjugated with taurine
same,Conc. in bile,[1]; [4],40 µM
same,Secretion (biliary),[1]; [4],0.002 µmol/kg/min
same,Biliary secretion after iv infusion,"[1]; femoral infusion 1 μmol/kg/min, bile fistula rat",not efficient
same,Conc. in bile,"[1]; femoral infusion, 90 min",2300 µM
same,Conc. in bile,"[1]; femoral infusion, 120 min",900 µM
same,Conc. in bile,"[1]; femoral infusion, 150 min",60 µM
same,Conc. in bile,"[1]; femoral infusion, 180 min",40 µM
same,Conc. in bile,"[1]; femoral infusion, 210 min",20 µM
same,Secretion (biliary),"[1]; femoral infusion, 90 min",0.127 µmol/kg/min
same,Secretion (biliary),"[1]; femoral infusion, 120 min",0.065 µmol/kg/min
same,Secretion (biliary),"[1]; femoral infusion, 150 min",0.004 µmol/kg/min
same,Secretion (biliary),"[1]; femoral infusion, 180 min",0.003 µmol/kg/min
same,Secretion (biliary),"[1]; femoral infusion, 210 min",0.001 µmol/kg/min
same,"Metabolism, species in bile after id administration",[2]; [3],recovered as such and mainly metabolised to form the taurine conjugates
same,Intestinal absorption,"[2]; bile fistula rat, listed as compound 10, sodium salt",poor intestinal absorption
same,Intestinal absorption,"[2]; bile fistula rat, sodium salt",efficient
same,Conc. in bile,[2]; [5],10 µM
same,Secretion (biliary),[2]; [5],0.0004 µmol/kg/min
same,Choleretic effect (bile flow),"[2]; duodenal infusion 1 μmol/kg/min, 1 hour, bile fistula rat",not choleretic
same,Conc. in bile,"[2]; duodenal infusion, 120 min",70 µM
same,Conc. in bile,"[2]; duodenal infusion, 150 min",390 µM
same,Conc. in bile,"[2]; duodenal infusion, 180 min",140 µM
same,Conc. in bile,"[2]; duodenal infusion, 210 min",90 µM
same,Conc. in bile,"[2]; duodenal infusion, 240 min",30 µM
same,Conc. in bile,"[2]; duodenal infusion, 270 min",20 µM
same,Conc. in bile,"[2]; duodenal infusion, 300 min",20 µM
same,Secretion (biliary),"[2]; duodenal infusion, 120 min",0.003 µmol/kg/min
same,Secretion (biliary),"[2]; duodenal infusion, 150 min",0.019 µmol/kg/min
same,Secretion (biliary),"[2]; duodenal infusion, 180 min",0.003 µmol/kg/min
same,Secretion (biliary),"[2]; duodenal infusion, 210 min",0.004 µmol/kg/min
same,Secretion (biliary),"[2]; duodenal infusion, 240 min",0.001 µmol/kg/min
same,Secretion (biliary),"[2]; duodenal infusion, 270 min",0.001 µmol/kg/min
same,Secretion (biliary),"[2]; duodenal infusion, 300 min",0.001 µmol/kg/min
same,pEC50,"hTGR5; FRET (cAMP) NCI-H716 hTGR5 EC50, Table 1, NCI-H716 cells",6.19
same,pEC50,"hTGR5; TGR5 Activation EC50, Table 6, cAMP level on NCI-H716",6.22
same,Albumin Binding,bovine serum albumin,83%
